“Also recorded” adds a separate entry of the source.
Legend:
HepG2 cells [1] = test: Uptake of IgG2a antibody conjugates into HepG2 cells; assay type: cell-based, human; settings: one hour incubation
Method: The uptake of antibody conjugates of exemplary M6PR or ASGPR binding compounds was assessed in Hep G2 cells, using a method similar to that described in Example above.

HepG2 cells [2] = test: Uptake of Alexa488-labelled target IgE bound to omalizumab (OMA) conjugates in HepG2 cells, flow cytometry; assay type: cell-based, human; settings: omalizumab (anti-IgE) conjugate bound to IgE-Alexa488, equal molar ratios; 1 hour
Method: (§1) The omalizumab conjugates of Example 60 were bound to IgE-Alexa488 (prepared according to Example 62), as follows: equal molar ratios of omalizumab (anti-IgE) conjugate and IgE-Alexa488 were added in tissue culture media for 30 minutes at room temperature. The resulting anti-IgE conjugate:IgE antibody-Alexa488 compositions were added to HepG2 cells (100 k cells/50 ul per well, n=2), and Alexa488 fluorescence levels in the cells were measured at 1 hour by flow cytometry. As the fluorescently labelled target (IgE antibody) accumulates in cells, the fluorescence presents a way to measure total intracellular uptake by cells over time.
as §1, with “OMA Ab” for “The omalizumab”, “example compounds I-160-I-163 and I-141” for “Example 60”, “by adapting procedure in” for “according to”, “61),” for “62),”, “OMA(anti-IgE)” for “omalizumab (anti-IgE)”

[3] = Pharmacokinetic study of OMA-linked compounds in mice, serum hIgG by ELISA; assay type: in vivo; settings: IV 5 mg/kg, female C57BL/6 mice, up to 168 hours
Method: Pharmacokinetic (PK) studies were undertaken to determine the pharmacokinetic profile of various OMA linked example compounds (I-161-I-163).
Protocol: Female C57BL/6 mice are dosed via IV with 5 mg/kg of OMA-example compounds, and OMA-reference. Serum samples are collected at 0.083, 0.25, 0.5, 1, 2, 4, 8, 24, 48, 72, and 168 hours after dosing with 3 animals per timepoint.
Serum hIgG concentrations were measured by ELISA.

IgE = test: Pharmacodynamic study: clearance of target IgE by OMA conjugates in mice, serum hIgE by ELISA; assay type: in vivo, C57BL/6 mice; settings: 0.1 mg/kg of OMA conjugate, IgE 1 mg/kg
Method: Protocol: Female C57BL/6 mice were IV dosed 1 mg/kg of IgE followed by 0.1, 0.3, 1, or 3 mg/kg of OMA-I-163 16 hours later. Serum samples were collected at 0 (pre-bleed), 1, 4, and 24 hours after OMA-I-163 dose with 3 animals per timepoint.
Serum hIgE and hIgG concentrations were measured by ELISA.
Protocol: Female C57BL/6 mice were IV dosed 1 mg/kg of IgE followed by 0.1 mg/kg of OMA-I-163, OMA-I-162, OMA-I-161, and OMA-I-160 16 hours later. Serum samples were collected at 0 (pre-bleed), 1, 4, and 24 hours after LYTAC dose with 3 animals per timepoint.
Serum concentrations were measured by Elisa.

Row | Structure (SMILES) | HepG2 cellular uptake of antibody conjugate (cell fluorescence, MFI) (HepG2 cells [1]) | relative uptake activity of Alexa488 labeled-target IgE in HepG2 cells (HepG2 cells [2]) | PK profile / clearance of OMA-linked compound (serum hIgG) [3] | IgE clearance efficiency compared to reference OMA-I-163 (IgE)
1 | O=C(CCOCCOCCOCCOCCn1cc(CCCCNC(=S)Nc2ccc(O[C@H]3O[C@H](CCP(=O)(O)O)[C@@H](O)[C@H](O)[C@@H]3O)cc2)nn1)Oc1c(F)c(F)c(F)c(F)c1F [Compound 520, reference compound] | comparable HepG2 cellular uptake; also recorded: comparable robust uptake into HepG2 cells |  |  | 
2 | CC(=O)N[C@H]1[C@H](OCCCCC(=O)NCCCNC(=O)CCOCC(COCCC(=O)NCCCNC(=O)CCCCO[C@@H]2O[C@H](CO)[C@H](O)[C@H](O)[C@H]2NC(C)=O)(COCCC(=O)NCCCNC(=O)CCCCO[C@@H]2O[C@H](CO)[C@H](O)[C@H](O)[C@H]2NC(C)=O)NC(=O)CCCCCCCCCCC(=O)Oc2c(F)c(F)c(F)c(F)c2F)O[C@H](CO)[C@H](O)[C@@H]1O [Compound 1209] | comparable HepG2 cellular uptake |  |  | 
3 | CC(=O)N[C@H]1[C@H](OCCCCC(=O)NCCCNC(=O)CCOCC(COCCC(=O)NCCCNC(=O)CCCCO[C@@H]2O[C@H](CO)[C@H](O)[C@H](O)[C@H]2NC(C)=O)(COCCC(=O)NCCCNC(=O)CCCCO[C@@H]2O[C@H](CO)[C@H](O)[C@H](O)[C@H]2NC(C)=O)NC(=O)CCCCCCCCCCCN2C(=O)C=CC2=O)O[C@H](CO)[C@H](O)[C@@H]1O [Compound 1210] | comparable HepG2 cellular uptake |  |  | 
4 | CC(=O)N[C@@H]1[C@@H](O)[C@@H](O)[C@@H](CO)O[C@H]1Cc1cn(CCOCCOCCOCCNC(=O)CCC(CCC(=O)NCCOCCOCCOCCn2cc(C[C@@H]3O[C@H](CO)[C@H](O)[C@H](O)[C@H]3NC(C)=O)nn2)(CCC(=O)NCCOCCOCCOCCn2cc(C[C@@H]3O[C@H](CO)[C@H](O)[C@H](O)[C@H]3NC(C)=O)nn2)NC(=O)CCCCCCCCCCC(=O)Oc2c(F)c(F)c(F)c(F)c2F)nn1 [Compound I-140, perfluorophenyl 1-(4-(((2S,3R,4R,5R,6R)-3-acetamido-4,5-dihydroxy-6-(hydroxymethyl)tetrahydro-2H-pyran-2-yl)methyl)-1H-1,2,3-triazol-1-yl)-16,16-bis(1-(4-(((2S,3R,4R,5R,6R)-3-acetamido-4,5-dihydroxy-6-(hydroxymethyl)tetrahydro-2H-pyran-2-yl)methyl)-1H-1,2,3-triazol-1-yl)-13-oxo-3,6,9-trioxa-12-azapentadecan-15-yl)-13,18-dioxo-3,6,9-trioxa-12,17-diazanonacosan-29-oate] |  | comparable activity to the conjugate having the 0-glycoside |  | 
5 | CC(=O)N[C@@H]1[C@@H](O)[C@@H](O)[C@@H](CO)O[C@H]1SCCC(=O)NCCCCCNC(=O)CCOCC(COCCC(=O)NCCCCCNC(=O)CCS[C@@H]1O[C@H](CO)[C@H](O)[C@H](O)[C@H]1NC(C)=O)(COCCC(=O)NCCCCCNC(=O)CCS[C@@H]1O[C@H](CO)[C@H](O)[C@H](O)[C@H]1NC(C)=O)NC(=O)CCCCCCCCCCC(=O)Oc1c(F)c(F)c(F)c(F)c1F [Compound I-141, perfluorophenyl 1-(((2S,3R,4R,5R,6R)-3-acetamido-4,5-dihydroxy-6-(hydroxymethyl)tetrahydro-2H-pyran-2-yl)thio)-16,16-bis((3-((5-(3-(((2S,3R,4R,5R,6R)-3-acetamido-4,5-dihydroxy-6-(hydroxymethyl)tetrahydro-2H-pyran-2-yl)thio)propanamido)pentyl)amino)-3-oxopropoxy)methyl)-3,11,18-trioxo-14-oxa-4,10,17-triazanonacosan-29-oate] |  | superior uptake to that of the 0-glycoside |  | 
6 | CC(=O)N[C@@H]1[C@@H](O)[C@@H](O)[C@@H](CO)O[C@H]1n1cc(COCCOCCOCCNC(=O)CCC(CCC(=O)NCCOCCOCCOCc2cn([C@@H]3O[C@H](CO)[C@H](O)[C@H](O)[C@H]3NC(C)=O)nn2)(CCC(=O)NCCOCCOCCOCc2cn([C@@H]3O[C@H](CO)[C@H](O)[C@H](O)[C@H]3NC(C)=O)nn2)NC(=O)CCCCCCCCCCC(=O)Oc2c(F)c(F)c(F)c(F)c2F)nn1 [Compound I-143, perfluorophenyl 1-(1-((2R,3R,4R,5R,6R)-3-acetamido-4,5-dihydroxy-6-(hydroxymethyl)tetrahydro-2H-pyran-2-yl)-1H-1,2,3-triazol-4-yl)-15,15-bis(1-(1-((2R,3R,4R,5R,6R)-3-acetamido-4,5-dihydroxy-6-(hydroxymethyl)tetrahydro-2H-pyran-2-yl)-1H-1,2,3-triazol-4-yl)-12-oxo-2,5,8-trioxa-11-azatetradecan-14-yl)-12,17-dioxo-2,5,8-trioxa-11,16-diazaoctacosan-28-oate] |  | superior activity to the reference conjugate |  | 
7 | CC(=O)N[C@H]1[C@H](OCCCCC(=O)NCCCNC(=O)CCOCC(COCCC(=O)NCCCNC(=O)CCCCO[C@@H]2O[C@H](CO)[C@H](O)[C@H](O)[C@H]2NC(C)=O)(COCCC(=O)NCCCNC(=O)CCCCO[C@@H]2O[C@H](CO)[C@H](O)[C@H](O)[C@H]2NC(C)=O)NC(=O)CCOCCOCCOCCOCCC(=O)Oc2c(F)c(F)c(F)c(F)c2F)O[C@H](CO)[C@H](O)[C@@H]1O [Compound I-145] |  | superior uptake to conjugates having a valency of 2 or 1 |  | 
8 | CO[C@@H]1O[C@H](CO)[C@H](O)[C@H](O)[C@H]1NC(=O)COCCc1cn(CCOCCOCCNC(=O)CCC(CCC(=O)NCCOCCOCCn2cc(CCOCC(=O)N[C@H]3[C@H](OC)O[C@H](CO)[C@H](O)[C@@H]3O)nn2)(CCC(=O)NCCOCCOCCn2cc(CCOCC(=O)N[C@H]3[C@H](OC)O[C@H](CO)[C@H](O)[C@@H]3O)nn2)NC(=O)CCCCCCCCCCC(=O)Oc2c(F)c(F)c(F)c(F)c2F)nn1 [Compound I-155] |  | less active than the 1-position linked conjugate |  | 
9 | CC(=O)N[C@@H]1[C@@H](O)[C@@H](O)[C@@H](CO)O[C@H]1Cc1cn(CCOCCOCCOCCNC(=O)CCC(CCC(=O)NCCOCCOCCOCCn2cc(C[C@@H]3O[C@H](CO)[C@H](O)[C@H](O)[C@H]3NC(C)=O)nn2)(CCC(=O)NCCOCCOCCOCCn2cc(C[C@@H]3O[C@H](CO)[C@H](O)[C@H](O)[C@H]3NC(C)=O)nn2)NC(=O)CCCCCCCCCCC(=O)NCCN2C(=O)C=CC2=O)nn1 [Compound I-160] |  | most active anomeric position variants | distinct PK profiles from reference compound I-163 | clear IgE more efficiently than the reference compound
10 | CC(=O)N[C@@H]1[C@@H](O)[C@@H](O)[C@@H](CO)C[C@H]1n1cc(COCCOCCOCCNC(=O)CCC(CCC(=O)NCCOCCOCCOCc2cn([C@@H]3O[C@H](CO)[C@H](O)[C@H](O)[C@H]3NC(C)=O)nn2)(CCC(=O)NCCOCCOCCOCc2cn([C@@H]3O[C@H](CO)[C@H](O)[C@H](O)[C@H]3NC(C)=O)nn2)NC(=O)CCCCCCCCCCC(=O)NCCN2C(=O)C=CC2=O)nn1 [Compound I-161] |  | essentially identical activity to the reference conjugate; also recorded: most active anomeric position variants | distinct PK profiles from reference compound I-163 | clear IgE more efficiently than the reference compound
11 | CC(=O)N[C@@H]1[C@@H](O)[C@@H](O)[C@@H](CO)O[C@H]1SCCC(=O)NCCCCCNC(=O)CCOCC(COCCC(=O)NCCCCCNC(=O)CCS[C@@H]1O[C@H](CO)[C@H](O)[C@H](O)[C@H]1NC(C)=O)(COCCC(=O)NCCCCCNC(=O)CCS[C@@H]1O[C@H](CO)[C@H](O)[C@H](O)[C@H]1NC(C)=O)NC(=O)CCCCCCCCCCC(=O)NCCN1C(=O)C=CC1=O [Compound I-162] |  | most active anomeric position variants | distinct PK profiles from reference compound I-163 | clear IgE more efficiently than the reference compound

Reference: patent US12258332B2, “ASGPR cell surface receptor binding compounds and conjugates” (Lycia Therapeutics, Inc., priority 2021, dated 2025)
